# EP4603105A1, “PHARMACEUTICAL COMPOSITION CONTAINING CYCLIC COMPOUND HAVING SELECTIVE KRAS INHIBITORY EFFECT AGAINST HRAS AND NRAS” (CHUGAI SEIYAKU KABUSHIKI KAISHA, priority 2022, dated 2024)
# *1 amine or outer side, *2 acyl side, *3 side chain or, on linkers, in order; H or OH if unused. Where a SMILES comes first, the peptide text is derived from it. Bridges are numbered along the chain shown (N, C = ends). [ ]: non-standard residue; d: D form. The star is where a group is joined. hPhe(3-Cl-4-CF3) = N[C@@H](CCc1ccc(C(F)(F)F)c(Cl)c1)C(=O)O; NPrPhe(4-CF3) = CCCN[C@@H](Cc1ccc(C(F)(F)F)cc1)C(=O)O; X41 = CCCN([C@@H](Cc1ccc(OC)cc1)C(=O)[*:2])[*:1]; NMeGly(cPent) = CN[C@H](C(=O)O)C1CCCC1; Pro(4,4-F2) = O=C(O)[C@@H]1CC(F)(F)CN1; NMeD = CN[C@@H](CC(=O)O)C(=O)O; NMeL = CN[C@@H](CC(C)C)C(=O)O; Morpholide = C1CN(*)CCO1; Ac5c = NC1(C(=O)O)CCCC1; Ac4c = NC1(C(=O)O)CCC1; NEtG = CCNCC(=O)O; Sar = CNCC(=O)O
# Key:
# [1] = molecular target: GDP-bound NRAS wild-type protein (Homo sapiens, UniProt P01111); test: Binding to NRAS by surface plasmon resonance (SPR), KD and KD ratio to KRAS
# Chain of GDP-bound NRAS wild-type protein (P01111 whole entry): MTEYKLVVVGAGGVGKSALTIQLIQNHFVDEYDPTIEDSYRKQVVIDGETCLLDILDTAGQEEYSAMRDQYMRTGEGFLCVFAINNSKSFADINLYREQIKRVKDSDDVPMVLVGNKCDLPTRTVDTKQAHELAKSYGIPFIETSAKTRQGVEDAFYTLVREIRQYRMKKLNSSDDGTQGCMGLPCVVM
# Method in brief: (§1)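 Each cycle, GDP-bound biotin-Avi RAS was captured (~100–300 RU), compound concentrations were injected low to high for 75 s each at 100 µL/min, then the chip was regenerated. Buffer: HBS pH 7.4, 10 mM MgCl2, 10 µM GDP, 1 mM DTT, 4% DMSO; 30°C. KD from a 1:1 binding model.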
# [2] = molecular target: HRAS wild-type protein (Homo sapiens, UniProt P01112); test: Binding to HRAS by surface plasmon resonance (SPR), KD and KD ratio to KRAS
# Chain of HRAS wild-type protein (P01112 whole entry): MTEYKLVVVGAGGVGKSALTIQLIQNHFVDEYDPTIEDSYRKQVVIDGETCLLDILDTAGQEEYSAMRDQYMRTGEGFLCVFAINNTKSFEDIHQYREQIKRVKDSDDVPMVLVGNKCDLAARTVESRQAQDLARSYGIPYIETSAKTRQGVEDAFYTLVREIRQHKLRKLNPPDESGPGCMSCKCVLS
# Method in brief: as §1
# [3] = test system: human lung cancer strain NCI-H441; format: cell-based
# Method in brief: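 Signal came from […] measured per well once the reagent was added. Beforehand, cells were cultured at 37°C and 5% carbon dioxide on a compound series serially diluted in dimethyl sulfoxide.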
# [4] = ratio of KD value for GDP-bound NRAS wild-type protein to KD value for KRAS (SPR)
# [5] = ratio of KD value for HRAS wild-type protein to KD value for KRAS (SPR)
# [6] = ratio of KD for GDP-bound NRAS wild-type protein to KD for KRAS
# [7] = ratio of KD for HRAS wild-type protein to KD for KRAS
# [8] = ratio of the KD value with respect to GDP-bound NRAS wild-type protein to the KD value with respect to KRAS
# [9] = ratio of the KD value with respect to HRAS wild-type protein to the KD value with respect to KRAS
Structure (SMILES),IC50 [3] [nM],"NRAS /KRAS [1, 6]","HRAS /KRAS [2, 7]","NRAS /KRAS [1, 8]","HRAS /KRAS [2, 9]",also measured
CCO[C@@H]1C[C@H]2C(=O)NC3(CC(C)(C)C3)C(=O)N(C)[C@@H](C3CCCC3)C(=O)N3CCC[C@@H]3CC(=O)N(C)[C@@H](CC)C(=O)N[C@@H]([C@@H](C)CC)C(=O)N(C)CC(=O)N(C)[C@H]3C/C=C\CCN(C3=O)[C@@H](Cc3ccc(C(F)(F)F)cc3)C(=O)N(C)CC(=O)N[C@@H](CCc3cc(F)c(C(F)(F)F)c(F)c3)C(=O)N2C1 [PP1606],12.6,–,–,–,–,"NRAS /KRAS [1, 4]: B (a compound having 3 or more and less than 10 is denoted as B); HRAS /KRAS [2, 5]: B (a compound having 3 or more and less than 10 is denoted as B)"
CCC[C@H]1C(=O)N[C@@H](C2CCOCC2)C(=O)N(C)CC(=O)N(C)[C@H]2C/C=C\CCN(C2=O)[C@@H](Cc2ccc(C(F)(F)F)cc2)C(=O)N(C)CC(=O)N[C@@H](CCc2ccc(C(F)(F)F)c(Cl)c2)C(=O)N2C[C@H](OCC)C[C@H]2C(=O)NC2(CC(C)(C)C2)C(=O)N(C)[C@@H](CC(C)(C)C)C(=O)N(C)[C@H](C(=O)N(C)C)CC(=O)N1C [PP3022],51.4,AA (a compound having 20 or more is denoted as AA),A (a compound having 10 or more and less than 20 is denoted as A),–,–,–
CC[C@H](C)[C@@H]1NC(=O)[C@H](CC)N(C)C(=O)C[C@@H](C(=O)N(C)C)N(C)C(=O)[C@H](C2CCCC2)N(C)C(=O)C2(CCC2)N(C)C(=O)[C@@H]2CCCN2C(=O)[C@H](CCc2cc(F)c(C(F)(F)F)c(F)c2)NC(=O)CN(C)C(=O)[C@H](Cc2ccc(C(F)(F)F)cc2)N2CC/C=C\C[C@@H](C2=O)N(C)C(=O)CN(C)C1=O [PP1780],8.2,–,–,–,–,"NRAS /KRAS [1, 4]: A (a compound having 10 or more and less than 20 is denoted as A); HRAS /KRAS [2, 5]: A (a compound having 10 or more and less than 20 is denoted as A)"
CCO[C@@H]1C[C@H]2C(=O)NC3(CCC3)C(=O)N(C)[C@@H](C(C)C)C(=O)N(C)[C@H](C(=O)N(C)C)CC(=O)N(C)[C@@H](CC)C(=O)N[C@@H]([C@@H](C)CC)C(=O)N(C)CC(=O)N(C)[C@H]3C/C=C\CCN(C3=O)[C@@H](Cc3ccc(C(F)(F)F)cc3)C(=O)N(C)CC(=O)N[C@@H](CCc3cc(F)c(C(F)(F)F)c(F)c3)C(=O)N2C1 [PP1088],195,A (a compound having 10 or more and less than 20 is denoted as A),A (a compound having 10 or more and less than 20 is denoted as A),–,–,–
CCO[C@@H]1C[C@H]2C(=O)NC3(CCC3)C(=O)N(C)[C@@H](C3CCCC3)C(=O)N(C)[C@H](C(=O)N3C[C@@H](C)O[C@@H](C)C3)CC(=O)N(C)[C@@H](CC(C)C)C(=O)N[C@@H]([C@@H](C)CC)C(=O)N(C)CC(=O)N(C)[C@H]3CCCCCN(C3=O)[C@@H](Cc3ccc(F)cc3)C(=O)N(C)CC(=O)N[C@@H](CCc3ccc(C(F)(F)F)c(Cl)c3)C(=O)N2C1 [PP1153],15.5,–,–,–,–,NRAS /KRAS ([1]; ratio of KD with respect to GDP-bound NRAS wild-type protein to KD with respect to KRAS): B (a compound having 3 or more and less than 10 is denoted as B); HRAS /KRAS ([2]; ratio of KD with respect to HRAS wild-type protein to KD with respect to KRAS): B (a compound having 3 or more and less than 10 is denoted as B)
CC[C@H](C)[C@@H]1NC(=O)[C@H](CC)N(C)C(=O)C[C@@H](C(=O)N(C)C)N(C)C(=O)[C@H](C2CCCC2)N(C)C(=O)C2(CCC2)NC(=O)[C@@H]2CCCCN2C(=O)[C@H](CCc2cc(F)c(C(F)(F)F)c(F)c2)NC(=O)CN(C)C(=O)[C@H](Cc2ccc(C(F)(F)F)cc2)N2CCCCC[C@@H](C2=O)N(C)C(=O)CN(C)C1=O [PP0655],125,–,–,B (a compound having 3 or more and less than 10 is denoted as B),B (a compound having 3 or more and less than 10 is denoted as B),–
CC[C@H](C)[C@@H]1NC(=O)[C@H](CC(C)C)N(C)C(=O)C[C@@H](C(=O)N(C)C)N(C)C(=O)[C@H](C2CCCC2)N(C)C(=O)C2(CCC2)NC(=O)[C@@H]2CCCN2C(=O)[C@H](CCc2cc(F)c(C(F)(F)F)c(F)c2)NC(=O)CN(C)C(=O)[C@H](Cc2ccc(C(F)(F)F)cc2)N2CCCC[C@@H](C2=O)N(C)C(=O)CN(C)C1=O [PP0574],3.1,–,–,C (A compound having a KD ratio of 0.1 or more and less than 3 is denoted as C),B (a compound having 3 or more and less than 10 is denoted as B),–
CCO[C@@H]1C[C@H]2C(=O)NC3(CCC3)C(=O)N(C)[C@@H](C3CCCC3)C(=O)N(C)[C@H](C(=O)N3CCOCC3)CC(=O)N(C)[C@@H](CC3CCC3)C(=O)N[C@@H]([C@@H](C)CC)C(=O)N(C)CC(=O)N(C)[C@H]3CCCCN(C3=O)[C@@H](Cc3ccc(C(F)(F)F)cc3)C(=O)N(C)CC(=O)N[C@@H](CCc3cc(F)c(C(F)(F)F)c(F)c3)C(=O)N2C1 [PP0713],4.2,–,–,C (A compound having a KD ratio of 0.1 or more and less than 3 is denoted as C),B (a compound having 3 or more and less than 10 is denoted as B),–
CCCN1C(=O)CN(C)C(=O)CN(C)C(=O)[C@H]([C@@H](C)CC)NC(=O)[C@H](CC(C)C)N(C)C(=O)C[C@@H](C(=O)N2CCOCC2)N(C)C(=O)[C@H](C2CCCC2)N(C)C(=O)C2(CCCC2)NC(=O)[C@@H]2CCCN2C(=O)[C@H](CCc2ccc(C(F)(F)F)c(Cl)c2)NC(=O)CN(C)C(=O)[C@@H]1Cc1ccc(OC)cc1 [PP0135] ([NMeL]I[Sar][Sar][X41][Sar][hPhe(3-Cl-4-CF3)]P[Ac5c][NMeGly(cPent)][NMeD]-Morpholide; lactam N-11),26.1,B (a compound having 3 or more and less than 10 is denoted as B),C (A compound having a KD ratio of 0.1 or more and less than 3 is denoted as C),–,–,–
CC[C@H](C)[C@@H]1NC(=O)[C@H](CC(C)C)N(C)C(=O)C[C@@H](C(=O)N2CCOCC2)N(C)C(=O)[C@H](C2CCCC2)N(C)C(=O)C2(CCCC2)NC(=O)[C@@H]2[C@@H](O)CCN2C(=O)[C@H](CCc2cc(F)c(C(F)(F)F)c(F)c2)NC(=O)CN(C)C(=O)[C@H](Cc2ccc(C(F)(F)F)cc2)N2CCCCC[C@@H](C2=O)N(C)C(=O)CN(C)C1=O [PP0662],1570,–,–,B (a compound having 3 or more and less than 10 is denoted as B),B (a compound having 3 or more and less than 10 is denoted as B),–
"CCCN1C(=O)CN(C)C(=O)CN(CC)C(=O)[C@H]([C@@H](C)CC)NC(=O)[C@H](CC(C)C)N(C)C(=O)C[C@@H](C(=O)N2CCOCC2)N(C)C(=O)[C@H](C2CCCC2)N(C)C(=O)C2(CCCC2)NC(=O)[C@@H]2CC(F)(F)CN2C(=O)[C@H](CCc2ccc(C(F)(F)F)c(Cl)c2)NC(=O)CN(C)C(=O)[C@@H]1Cc1ccc(C(F)(F)F)cc1 [PP0399] ([NMeL]I[NEtG][Sar][NPrPhe(4-CF3)][Sar][hPhe(3-Cl-4-CF3)][Pro(4,4-F2)][Ac5c][NMeGly(cPent)][NMeD]-Morpholide; lactam N-11)",6.3,–,–,B (a compound having 3 or more and less than 10 is denoted as B),C (A compound having a KD ratio of 0.1 or more and less than 3 is denoted as C),–
"CCCN1C(=O)CN(C)C(=O)CN(CC)C(=O)[C@H]([C@@H](C)CC)NC(=O)[C@H](CC(C)C)N(C)C(=O)C[C@@H](C(=O)N2CCOCC2)NC(=O)[C@H](C2CCCC2)N(C)C(=O)C2(CCC2)NC(=O)[C@@H]2CC(F)(F)CN2C(=O)[C@H](CCc2ccc(C(F)(F)F)c(Cl)c2)NC(=O)CN(C)C(=O)[C@@H]1Cc1ccc(C(F)(F)F)cc1 [PP0334] ([NMeL]I[NEtG][Sar][NPrPhe(4-CF3)][Sar][hPhe(3-Cl-4-CF3)][Pro(4,4-F2)][Ac4c][NMeGly(cPent)]D-Morpholide; lactam N-11)",130,B (a compound having 3 or more and less than 10 is denoted as B),C (A compound having a KD ratio of 0.1 or more and less than 3 is denoted as C),–,–,–
CCO[C@@H]1C[C@H]2C(=O)NC3(CCC3)C(=O)N(C)[C@@H](C(C)(C)C)C(=O)N(C)[C@H](C(=O)N3CCOCC3)CC(=O)N(C)[C@@H](CC(C)C)C(=O)N[C@@H]([C@@H](C)CC)C(=O)N(C)CC(=O)N(C)[C@H]3CCCCCN(C3=O)[C@@H](Cc3ccc(C(F)(F)F)cc3)C(=O)N(C)CC(=O)N[C@@H](CCc3cc(F)c(C(F)(F)F)c(F)c3)C(=O)N2C1 [PP0823],130,A (a compound having 10 or more and less than 20 is denoted as A),B (a compound having 3 or more and less than 10 is denoted as B),–,–,–
CCO[C@@H]1C[C@H]2C(=O)NC3(CCC3)C(=O)N(C)[C@@H](C3CCCC3)C(=O)N(C)[C@H](C(=O)N3CCOCC3)CC(=O)N(C)[C@@H](CC(C)C)C(=O)N[C@@H]([C@@H](C)CC)C(=O)N(C)CC(=O)N(C)[C@H]3C/C=C\CCN(C3=O)[C@@H](Cc3ccc(C(F)(F)F)cc3)C(=O)N(C)CC(=O)N[C@@H](CCc3ccc(C(F)(F)F)c(Cl)c3)C(=O)N2C1 [PP0825],26.5,A (a compound having 10 or more and less than 20 is denoted as A),A (a compound having 10 or more and less than 20 is denoted as A),–,–,–
